Values quoted from earlier work as cited in US20120189710A1, “ANTIBACTERIAL COMPOSITIONS” (priority 2009, published 2012).

water solubility: water soluble
SMILES: C=CCSC[C@H](N)C(=O)O [SAC, S-allyl cysteine]
